Tests used:
Format in all cases: in vivo, C57BL/6 mice
[1] = test system: B16F10 melanoma cells; assay: B16F10 subcutaneous primary tumor growth in lung metastasis challenge study; details: by day 17
Source text: Activation of the STING pathway promotes antigen presentation and induces a durable T-cell response, as shown in Examples 11 and 12. Thus, the immune memory response induced by EXOSTING™ may be sufficient to prevent tumor metastasis after a local administration in a primary tumor. To test this hypothesis, exosomes purified from HEK293SF cells overexpressing PTGFRN were loaded with the cyclic dinucleotide 3-3 cAIMPdFSH as described in Example 1. C57BL/6 mice were inoculated subcutaneously with 1×10^6 B16F10 melanoma cells on day zero and challenged with an additional tail vein injection of 1×10^5 B16F10 melanoma cells to seed lung metastases (n=8 mice per group). Five, eight, and eleven days post-inoculation the mice were injected intratumorally at the subcutaneous tumor with PBS, 20 μg 3-3 cAIMPdFSH, 120 ng 3-3 cAIMPdFSH, or either 120 ng, 12 ng, or 1.2 ng 3-3 cAIMPdFSH loaded in PTGFRN-overexpressing exosomes (Exo STING Agonist). […] Lungs from all mice were harvested, imaged, and counted for metastases. […] As little as 12 ng of Exo STING Agonist prevented lung metastasis to the same extent as 20 μg STING Agonist (FIGS. 46B and 47).

[2] = Plasma pharmacokinetics after intravenous injection; details: 20 μg free
Method: To examine the pharmacokinetics of STING agonist in mouse plasma, naïve C57BL/6 mice were injected intravenously with 20 μg of free 3-3 cAIMPdFSH, or 0.1 μg, 0.3 μg, 0.6 μg 3-3 cAIMPdFSH loaded in PTGFRN-overexpressing exosomes. One, five, ten, and thirty minutes injection, blood was taken, and plasma were prepared. The concentration of 3-3 cAIMPdFSH was measured by LC-MS/MS, as described in Example 1.

[3] = test system: B16F10 murine melanoma cells; assay: Advanced B16F10 melanoma tumor growth; details: days 10, 13, 16
Method: Treatment was started when tumor volume reached ˜ 50 mm3. To test the activity in advanced tumor, C57BL/6 mice were inoculated subcutaneously with 1×10^6 B16F10 murine melanoma cells (n=5 mice per group) and waited until tumor volume reached ˜100 mm^3. Ten, thirteen, and sixteen days post-inoculation, the mice were injected intratumorally with exosomes, 30 μg of free 3-3 cAIMPdFSH, 0.3 μg of free 3-3 cAIMPdFSH, 0.1 μg of 3-3 cAIMPdFSH loaded in PTGFRN-overexpressing exosomes, or 0.3 μg of 3-3 cAIMPdFSH loaded in PTGFRN-overexpressing exosomes. Tumor volumes were measured daily until day 28, and animals were sacrificed when tumor volume reached 2000 mm^3.

[4] = test system: OVA-reactive splenic T-cells; assay: OVA-specific memory T-cell response in E.G7-OVA model
Method: STING pathway agonism in dendritic cells enhances antigen presentation, IFNβ production, and recruits CD8+ memory T-cells to elicit a durable adaptive immune response. To determine whether Exo STING could induce a memory T-cell response to a defined antigen, an antigen-specific T-cell response study was carried out using purified ovalbumin (OVA). C57BL/6 mice were injected intraperitoneally with 200 μg OVA mixed with either PBS, 20 μg ML RR-S2, 0.2 μg ML RR-S2, or 0.2 μg ML RR-S2 loaded in PTGFRN-overexpressing exosomes (n=4-10 mice per group). […] Isolated lymphocytes were analyzed by flow cytometry by measuring binding to immobilized tetrameric MHC class I bound to the OVA peptide SIINFEKL and phycoerythrin (PE) (iTAg Tetramer/PE—H-2 OVA; MBL®, Code #T03000). OVA-reactive memory T-cells were quantified by gating on PE, CD44, and CD8 positivity.
To test this hypothesis, C57BL/6 mice were inoculated subcutaneously with 1×10^6 E.G7-OVA cells (ATCC®; CRL-2113™), a murine T-cell lymphoma cell line engineered to stably express OVA and allow for modeling antigen-specific T-cell responses in mice (n=5 mice per group). […] Splenic T-cells from all groups were isolated and measured for OVA-specific reactivity as described in Example 11.

[5] = test system: ovalbumin (OVA)-reactive T-cells; assay: OVA-reactive memory T-cells by tetramer flow cytometry; details: six days
Method: STING pathway agonism in dendritic cells enhances antigen presentation, IFNβ production, and recruits CD8+ memory T-cells to elicit a durable adaptive immune response. To determine whether Exo STING could induce a memory T-cell response to a defined antigen, an antigen-specific T-cell response study was carried out using purified ovalbumin (OVA). C57BL/6 mice were injected intraperitoneally with 200 μg OVA mixed with either PBS, 20 μg ML RR-S2, 0.2 μg ML RR-S2, or 0.2 μg ML RR-S2 loaded in PTGFRN-overexpressing exosomes (n=4-10 mice per group). Six days post-injection, spleens and mesenteric lymph nodes were collected, homogenized to a single-cell suspension, and live lymphocytes were enriched by density centrifugation. Isolated lymphocytes were analyzed by flow cytometry by measuring binding to immobilized tetrameric MHC class I bound to the OVA peptide SIINFEKL and phycoerythrin (PE) (iTAg Tetramer/PE—H-2 OVA; MBL®, Code #T03000). OVA-reactive memory T-cells were quantified by gating on PE, CD44, and CD8 positivity.

[6] = test system: IFNβ, CXCL9, CXCL10, IFNγ gene expression; serum cytokines; assay: Cytokine levels after single intratumoral dose in B16F10 tumor-bearing mice; details: 20 μg single intratumoral dose, four hours post-injection
Method: Four groups of C57BL/6 mice (3-4 mice per group) were inoculated subcutaneously with 5×10^5 B16F10 tumor cells. Eight days post-inoculation the mice were injected with a single intratumoral dose of PBS, 20 μg of free ML RR-S2 CDA, 0.2 μg of free ML RR-S2 CDA, or 0.2 μg of ML RR-S2 CDA loaded in PTGFN-overexpressing exosomes (exo ML RR-S2 CDA). Four hours post-injection the tumors, draining lymph nodes, spleens, and serum were collected and cytokine levels were measured.
To confirm that the effects observed in FIGS. 20-23 were applicable to other STING agonists, B16F10 subcutaneous tumor-bearing mice were injected with 20 μg of free 3-3 cAIMPdFSH, 0.2 μg of free 3-3 cAIMPdFSH, or 0.2 μg of 3-3 cAIMPdFSH loaded in PTGFRN-overexpressing exosomes (exo 3-3 cAIMPdFSH).

| Compound | primary tumor growth ([1]; 120 ng free) | primary tumor growth ([1]; 20 μg intratumoral days 5, 8, 11) | half-life in plasma [2] [min] | tumor growth compared to exosomes control ([3]; 0.3 μg free, start ~100 mm^3) | tumor burden compared to exosomes control ([3]; 30 μg free) | memory T-cell response (OVA-specific) ([4]; 0.2 μg intratumoral) | memory T-cell response (OVA-specific) ([4]; 20 μg intratumoral) | OVA-reactive T-cells in spleen and mesenteric lymph nodes ([5]; 0.2 μg IP with 200 μg OVA) | OVA-reactive T-cells in spleen and mesenteric lymph nodes ([5]; 20 μg IP with 200 μg OVA) | IFNβ gene expression levels in the tumor [6] |
| --- | --- | --- | --- | --- | --- | --- | --- | --- | --- | --- |
| Nc1ncnc2c1ncn2[C@@H]1O[C@@H]2COP(=O)(S)O[C@H]3[C@@H](F)[C@H](n4cnc5c(=O)[nH]cnc54)O[C@@H]3COP(O)(=S)O[C@H]2[C@H]1F (stereo partly shown) [3-3 cAIMPdFSH, 3′3′-cAIMPdFSH] | no tumor regression observed | did not grow | 1.2 | tumor growth was not affected | great reduction of tumor burden |  |  |  |  |  |
| Nc1ncnc2c1ncn2[C@@H]1O[C@@H]2COP(O)(=S)O[C@@H]3C(O)[C@@H](COP(O)(=S)O[C@H]2[C@H]1O)O[C@H]3n1cnc2c(N)ncnc21 (stereo partly shown) [ML RR-S2 CDA] |  |  |  |  |  | modest memory T-cell response | potent memory T-cell response | no activity in the spleen and only a modest response in mesenteric lymph nodes | A greater proportion of OVA-reactive T-cells | higher than the 0.2 μg free STING agonist and PBS groups |
